# Results reported in publication PMC6079455, “Discovery of Novel Caeridins from the Skin Secretion of the Australian White's Tree Frog, Litoria caerulea” (International Journal of Genomics, 2018).
# pEC50: −log10 of the molar value. Ends that are not written are not given here.
# Assays:
# [1] = system: MRSA NCTC12493; assay: Antimicrobial test (broth microdilution); format: cell-based, methicillin-resistant S. aureus; details: for MIC: MHB, 5 × 10^5 CFU/ml, 37°C overnight, 550 nm
# Procedure: (§1) The antimicrobial activities were tested by the broth microdilution method and evaluated by the determination of MIC values against different tested microorganisms, the Gram-positive bacteria, S. aureus (NCTC 10788), E. faecalis (NCTC12697), and MRSA (NCTC 12493); the Gram-negative bacterium, E. coli (NCTC 10418); and the yeast, C. albicans (NCYC 1467). The microorganisms were cultured to their log phase in MHB and diluted to 5 × 10^5 CFU/ml then subsequently treated with peptide solutions of gradient concentrations. After incubation at 37°C overnight, the growth of microorganisms was detected at a wavelength of 550 nm using a Synergy HT plate reader (Biolise BioTek ELx808, Winooski, VT, USA). The MICs were determined as the lowest concentration of peptide where […].
# [2] = system: E. faecalis NCTC12697; assay: Antimicrobial test (broth microdilution); format: cell-based, Enterococcus faecalis; details: for MIC: MHB, 5 × 10^5 CFU/ml, 37°C overnight, 550 nm
# Procedure: as §1
# [3] = system: C. albicans NCYC1467; assay: Antimicrobial test (broth microdilution); format: cell-based, Candida albicans; details: for MIC: MHB, 5 × 10^5 CFU/ml, 37°C overnight, 550 nm
# Procedure: as §1
# [4] = system: S. aureus; assay: Membrane permeability on S. aureus (SYTOX Green); format: cell-based, Staphylococcus aureus; details: 2 h; for membrane-permeabilising activity on S. aureus: up to 512 μM
# Procedure: The cell membrane permeability of S. aureus was tested with SYTOX Green Nucleic Acid Stain (Life Technologies, Carlsbad, CA, USA). The log-phase S. aureus was pelleted and suspended in 5% TSB in 0.85% NaCl solution to achieve 1 × 10^8 CFU/ml cells which was then treated with peptide solutions at 37°C for 2 h. The maximum membrane-compromised S. aureus was produced by 70% isopropanol treatment. Subsequently, cells were mixed with 5 μM SYTOX Green stain and incubated in the dark for 10 min. The fluorescence was measured in a 37°C Synergy HT plate reader (Biolise BioTek ELx808, Winooski, VT, USA) at excitation and emission wavelengths of 480 nm and 528 nm, respectively. The membrane permeability was calculated as (1) Membrane permeability%=F−F0/F1−F0×100%, where F represents the processed fluorescence intensity with peptide treatments, F0 represents the processed fluorescence intensity of untreated S. aureus, and F1 represents the processed fluorescence intensity in the maximum membrane-compromised S. aureus (70% isopropanol-treated). The fluorescence intensities of background were subtracted prior to calculation.
# [5] = system: human microvascular endothelial cell line HMEC-1; assay: Membrane permeabilisation of HMEC-1 (LDH release); format: cell-based; details: 24 h; for cytotoxicity to HMEC-1 cells: 100 μM, LDH release; for membrane lysis (LDH release) of HMEC-1: 10^−7 M to 10^−4 M
# Procedure: The membrane permeabilisation of the human microvascular endothelial cell line, HMEC-1, was evaluated using the Pierce LDH Cytotoxicity Assay Kit (Thermo Fisher Scientific, San Francisco, CA, USA). HMEC-1 cells were cultured in MCDB-131 medium (Life Technology, Paisley, UK) with 10% FBS, 10 ng/ml epidermal growth factor (EGF) (Life Technology, Paisley, UK), 10 mM L-glutamine (Life Technology, Paisley, UK), and 1% penicillin-streptomycin (Sigma-Aldrich, St. Louise, MO, USA), at 37°C under 5% CO2. Cells were seeded in a 96-well plate at 5000 cells per well and cultured overnight to 80% confluency. Then, the cells were treated with different peptide solutions of gradient concentrations from 10^−7 M to 10^−4 M for 24 h at 37°C, 5% CO2, and H2O-treated cells were made as the spontaneous LDH release control. Lysis buffer was added to cells and incubated for 45 min at 37°C, 5% CO2, to produce the lysis buffer-treated cells which were referred to as maximum LDH release control. Then 50 μl of each sample supernatant was transferred to a 96-well flat-bottom plate in triplicate wells, to which 50 μl of reaction mixture was added, incubated, and protected from light at room temperature for 30 min. After addition of 50 μl Stop Solution to each sample well and removal of bubbles present in sample wells, the absorbance at 490 nm and 680 nm was measured. The absorbance values at 680 nm were subtracted from the absorbance values at 490 nm before calculation of the level of LDH release (cytotoxicity). The level of LDH release was calculated as (2) LDH release %=L−L0/L1−L0×100%, where L refers to sample-treated LDH activity, L0 to spontaneous (H2O-treated) LDH activity, and L1 to maximum (lysis buffer-treated) LDH activity.
# Data analysis was performed using one-way analysis of variance followed by Dunnett's multiple comparison tests with maximum LDH release control in GraphPad Prism (Version 6.0; GraphPad Software Inc., San Diego, CA, USA).
# [6] = system: horse erythrocytes; assay: Haemolytic test; format: cell-based; details: tested concentrations, horse red blood cells, 37°C, 2 h
# Procedure: The haemolysis of Caeridins was tested on prepared defrinated horse red blood cells (TCS Biosciences Ltd., Buckingham, UK) by incubating equal volumes of peptide solutions with erythrocyte suspensions at 37°C for 2 H. Maximum haemolysis control was included by incubating equal volumes of 1% Triton X-100 (Sigma-Aldrich, St. Louis, MO, USA) with erythrocyte suspensions. Lysis of erythrocytes was detected by the measurement of supernatant absorbance at a wavelength of 550 nm using a Synergy HT plate reader (Biolise BioTek ELx808, Winooski, VT, USA). The level of haemolysis was as calculated as (3) Haemolysis %=A−A0/A1−A0×100%, where A represents the absorbance with peptide treatments, A0 represents the average absorbance in untreated erythrocytes, and A1 represents the average absorbance in the maximum haemolysis control (1% Triton X-100-treated).
# [7] = system: E. coli; assay: Membrane permeability on E. coli (ONPG / β-galactosidase); format: cell-based, Escherichia coli; details: ONPG hydrolysis, absorbance 420 nm, 0-30 min, 37°C
# Procedure: The membrane permeabilsation of E.coli was determined by measuring the release of β-galactosidase activity from E. coli into the culture medium with ONPG as the substrate. The log-phase E. coli was grown in MHB medium containing 2% lactose at 37°C, and the cells were pelleted. The cell pellets were suspended in 10 mM PBS (pH 7.4) containing 1.5 mM ONPG and diluted to 1 × 10^8 CFU/ml. Aliquots of cells were incubated with different concentrations of peptides at 37°C. Permeabilisation was measured at 420 nm every 2 min from 0 to 30 min, which reflects ONPG influx into the cells working as an indicator of the permeability of the tested peptides.
# [8] = system: E. coli NCTC10418; assay: Antimicrobial test (broth microdilution); format: cell-based, Escherichia coli; details: for MIC: MHB, 5 × 10^5 CFU/ml, 37°C overnight, 550 nm
# Procedure: as §1
# [9] = system: rat urinary bladder smooth muscle; assay: Rat urinary bladder smooth muscle test; details: organ bath, 37°C, n = 5
# Procedure: (§2) Female Wistar rats (250–300 g) were euthanized by CO2 asphyxiation followed by cervical dislocation under appropriate Home Office (UK) animal licenses. Full urinary bladder and ileum were carefully removed from the abdomen, then placed in cold Kreb's solution (118 mM NaCl, 4.7 mM KCl, 25 mM NaHCO3, 1.15 mM NaH2PO4, 2.5 mM CaCl2, 1.1 mM MgCl2, and 5.6 mM glucose), equilibrated with a carbogen mixture (95% O2, 5% CO2). The prepared smooth muscles linked with transducers were placed in 2 ml capacity organ baths with Kreb's solution flowing through at 2 ml/min and maintained at 37°C with constant bubbling of carbogen gas mixture (95% O2, […]) and equilibrated for 1 h prior to analysis. Then the viability of these smooth muscle preparations was tested by 60 mM KCl. Caeridins were tested at sequential molar concentrations in the range from 10^−6 M to 10^−11 M. Dose-response curves were depicted for each Caeridin on individual smooth muscle preparations (n = 5). Changes in tension of the smooth muscle preparations were detected by pressure transducers connected to a PowerLab System (ADInstruments Pty Ltd.). Data were recorded and calculated to obtain the means of responses and standard error of means (SEM). The dose-response curve of each Caeridin was established using best-fit algorithms through the data analysis package provided by GraphPad Prism (Version 6.0; GraphPad Software Inc., San Diego, CA, USA), and the comparative EC50 value for each peptide was depicted.
# [10] = system: S. aureus NCTC10788; assay: Antimicrobial test (broth microdilution); format: cell-based, Staphylococcus aureus; details: for MIC: MHB, 5 × 10^5 CFU/ml, 37°C overnight, 550 nm
# Procedure: as §1
# [11] = system: rat ileum smooth muscle; assay: Rat ileum smooth muscle test; details: organ bath, 37°C, n = 5
# Procedure: as §2
Molecule,MBC [1],MIC [1],MIC [2],MFC [3],cytotoxicity to HMEC-1 cells [5],haemolytic activity [6],MBC [2],MIC [3],MBC [8],MIC [8],membrane-permeabilising activity on S. aureus [4],membrane lysis (LDH release) of HMEC-1 ([5]; relative to lysis buffer),membrane permeabilisation of E. coli at maximum tested concentration [7],MBC [10],MIC [10],also measured
"CC[C@H](C)[C@H](NC(=O)CN)C(=O)NCC(=O)N[C@@H](C)C(=O)N[C@H](C(=O)N[C@@H](CC(C)C)C(=O)N[C@@H](CCCCN)C(=O)N[C@H](C(=O)N[C@@H](CC(C)C)C(=O)N[C@H](C(=O)N[C@H](C(=O)NCC(=O)N[C@@H](CC(C)C)C(=O)N1CCC[C@H]1C(=O)N[C@@H](C)C(=O)N[C@@H](CC(C)C)C(=O)N[C@H](C(=O)N[C@@H](CO)C(=O)N[C@@H](Cc1c[nH]c2ccccc12)C(=O)N[C@H](C(=O)N[C@@H](CCCCN)C(=O)N[C@@H](CCCNC(=N)N)C(=O)N[C@@H](CCCCN)C(=O)N[C@@H](CCCNC(=N)N)C(=O)N[C@@H](CCC(N)=O)C(=O)N[C@@H](CCC(N)=O)C(N)=O)[C@@H](C)CC)[C@@H](C)CC)[C@@H](C)O)[C@@H](C)O)C(C)C)C(C)C [Melittin, reference compound]",4 µM,2 µM,2 µM,8 µM,significant cytotoxicity,eminent haemolysis from 1 μM,–,–,–,–,–,–,–,–,–,"membrane permeability of S. aureus at MBC ([4]; peptide at its MBC, 37°C, 1 × 10^8 CFU/ml, relative to 70% isopropanol): 100%; membrane permeability of S. aureus at MIC ([4]; peptide at its MIC, 37°C, 1 × 10^8 CFU/ml, relative to 70% isopropanol): approximately 50%; LDH release from HMEC-1 ([5]; 0.1 μM, relative to lysis buffer): approximately 10%; membrane permeabilisation of E. coli at MIC and MBC ([7]; 1 × 10^8 CFU/ml, PBS pH 7.4): higher absorbance at 420 nm"
GLLDGLLGTLGL-NH2 [Caeridin-1],> 512 µM,> 512 µM,> 512 µM,> 512 µM,weak cytotoxicity,weak haemolytic activities,> 512 µM,> 512 µM,> 512 µM,> 512 µM,barely showed membrane-permeabilising activity,lower than 5%,failed to induce membrane permeabilisation,> 512 µM,> 512 µM,"maximum contraction effect on bladder smooth muscle preparations [9]: 0.3 g; pEC50 ([9]; Kreb's solution, 10^−11 to 10^−6 M, read-out: EC50 inducing rat bladder smooth muscle contractions): 8.25"
"N2H-GLLDSLLGGLGL-CONH2 [S5-Caeridin-1, novel Caeridin peptide from Litoria caerulea skin secretion, synthetic replicate, C-terminally amidated]",> 512 µM,> 512 µM,> 512 µM,> 512 µM,weak cytotoxicity,weak haemolytic activities,> 512 µM,> 512 µM,> 512 µM,> 512 µM,barely showed membrane-permeabilising activity,lower than 5%,failed to induce membrane permeabilisation,> 512 µM,> 512 µM,"maximum relaxant effect on ileum smooth muscle preparations [11]: 0.2 g; pEC50 ([11]; Kreb's solution, 10^−11 to 10^−6 M, read-out: EC50 causing rat ileum smooth muscle relaxations): 8.02"
"RPPGFSPFR [Bradykinin, reference compound] [listing 1 of 2 here]",> 512 µM,> 512 µM,> 512 µM,> 512 µM,–,–,> 512 µM,> 512 µM,> 512 µM,> 512 µM,barely showed membrane-permeabilising activity,–,failed to induce membrane permeabilisation,> 512 µM,> 512 µM,–
"RPPGFSPFR [Bradykinin, reference compound] [listing 2 of 2 here]",–,–,–,–,weak cytotoxicity,weak haemolytic activities,–,–,–,–,–,lower than 5%,–,–,–,–
